{"source": "patent US4705845A", "about": "“Process for sulphation and phosphorylation of proteins and peptides” (Rockefeller University, priority 1986, dated 1987)", "key": {"[1]": {"assay": "Hypoglycemic potency (United States Pharmacopeia method)", "format": "in vivo", "settings": "relative to unmodified insulin; USP Vol. 18 method", "description": "Hypoglycemic potency of the modified insulin was measured as described in \"The United States Pharmacopeia\", Mark Publishing Co., Vol. 18, pp. 883-884 (1964). Bioactivity was 62% as compared to unmodified insulin."}, "[2]": {"assay": "Aggregation tendency assessed by turbidity of the solution (absorbance difference at 400 nm)", "format": "physicochemical", "settings": "0 to 0.1 A non-aggregated, above 0.3 aggregated", "description": "The tendency of modified insulin to aggregate was assessed by measuring the turbidity of the solution. This method is based on the work of Leach and Scheraga (S. J. Leach and H. A. Scheraga (1964) J. Amer. Chem. Soc. 82, 4790-4792) who stated that absorbancy observed in insulin solutions between 350 and 600 nm is due to light scattering of aggregated particles. Briefly, 10 mg of sample was dissolved in 2 ml of isotonic phosphate buffered saline (PBS) and the solution was passed 50 times through a 3 cc plastic syringe (B-D Plastipak, Luer Lok Type) equipped with a 26G 3/8\" hypodermic needle. After deaeration under vacuo for 60 min. 1 ml of this solution was diluted with 1 ml of PBS, and the turbidity was measured on a Hewlett Packard spectrophotometer type HP 8590, utilizing as a blank a non-aggregated sample diluted by 1 volume of 8M guanidine hydrochloride. Aggregation was measured by the difference in absorbance determined at 400 nm for the two samples. Non-aggregated samples gave absorbance values of 0 to 0.1 Absorbance Unit(A), Values above 0.3 were considered to be aggregated. Utilizing this assay the turbidity of this modified insulin dissolved in PBS was 0.08 A. In contrast unmodified porcine sodium insulin dissolved in distilled water has an absorbance of 0.51 A when treated according to the above procedure."}}}
{"substance": "Example 1: porcine sodium insulin sulphated with sulfuric acid and N,N' dicyclohexyl carbodiimide in DMF; mixture of sulphated isomers", "values": [{"measurement": "Bioactivity as compared to unmodified insulin (hypoglycemic potency)", "setting": "[1]", "result": 62, "unit": "%"}, {"measurement": "Turbidity (difference in absorbance at 400 nm)", "setting": "[2]; dissolved in PBS, passed 50 times through a 26G needle", "result": 0.08, "unit": "A"}]}
{"substance": "Example 4: porcine sodium insulin phosphorylated with concentrated phosphoric acid and DCC in DMF", "values": [{"measurement": "Bioactivity as compared to unmodified insulin (hypoglycemic potency)", "setting": "[1]", "result": 85, "unit": "%"}]}
{"substance": "unmodified porcine sodium insulin: unmodified porcine sodium insulin, starting material and comparator [reference compound]", "values": [{"measurement": "Turbidity (difference in absorbance at 400 nm)", "setting": "[2]; dissolved in distilled water, treated according to the same procedure", "result": 0.51, "unit": "A"}]}
